Key:
nerve-injured mice = conditions: pretreatment; cited from earlier work
UUO mice = conditions: compared with LPA1 (-/-) mice; cited from earlier work
[1] = test system: human foetal lung fibroblasts; conditions: cited from earlier work
[2] = test system: highly peritoneal metastatic pancreatic cancer cell line; conditions: cited from earlier work
[3] = test system: mouse epithelial renal cell line, MCT; conditions: co-treatment with LPA, MCT cells; cited from earlier work
[4] = test system: pancreatic cancer cell lines; conditions: cited from earlier work
human LPA1 = biological target: T1, human LPA1 (Homo sapiens, UniProt Q92633); test: LPA1 functional antagonist assay (LPA-induced calcium flux); format: cell-based; conditions: CHO cells overexpressing human LPA1; inhibition of calcium flux induced by 10 nM LPA; read-out: hLPA1 IC50
T1 construct: expressed in transfected cells; host or cells: Chinese hamster ovary (CHO) cells
In short: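 CHO cells overexpressing human LPA1, loaded with calcium dye, given compound (0.08 nM–5 μM final, 0.5% DMSO) for 20 min at room temperature in HBSS/HEPES with 0.1% fatty-acid-free BSA, then stimulated with 10 nM LPA. IC50 defined as 50% inhibition of LPA-induced calcium flux, from 4-parameter logistic fit.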

T1 sequence (Q92633 whole entry): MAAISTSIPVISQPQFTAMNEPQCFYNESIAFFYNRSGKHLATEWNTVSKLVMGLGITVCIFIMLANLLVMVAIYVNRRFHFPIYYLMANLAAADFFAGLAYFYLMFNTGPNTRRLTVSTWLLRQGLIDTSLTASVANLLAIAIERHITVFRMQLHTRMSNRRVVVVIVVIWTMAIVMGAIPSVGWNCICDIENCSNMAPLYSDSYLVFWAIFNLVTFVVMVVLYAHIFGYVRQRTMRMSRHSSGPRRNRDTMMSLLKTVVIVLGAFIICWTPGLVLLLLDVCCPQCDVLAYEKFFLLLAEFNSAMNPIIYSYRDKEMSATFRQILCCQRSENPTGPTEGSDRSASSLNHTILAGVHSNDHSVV

Which allodynia and hyperalgesia (nerve-injured mice) does the source give for `C[C@@H](N)[C@H]1CC[C@H](C(=O)Nc2ccncc2)CC1` [Example Y-27632] here?
The allodynia and hyperalgesia was “completely abolished”.

Which “development of renal fibrosis in UUO mice” value (UUO mice) does the source give for `Cc1noc(-c2ccc(CSCCC(=O)O)cc2)c1NC(=O)OC(C)c1ccccc1Cl` (stereo not drawn) [Ki16425] here?
The value was “closely resembled the profile of LPA1 (−/−) mice”.

What about the “chemotaxis of human foetal lung fibroblasts induced by BAL obtained from IPF patients” value [1] of the same molecule?
Its value is “blocked”.

And the “LPA-induced and ascites-induced invasion activity” value [2]?
Its value is “blocked”.

What about the “LPA-induced increase in expression of the profibrotic cytokine CTGF” value [3] of the same molecule?
The value was “almost completely suppressed”.

What about the “in vitro migration in response to LPA and peritoneal fluid (ascites) from pancreatic cancer patients” value [4] of the same molecule?
The value was “effectively blocked”.

Which IC50 (human LPA1) does the source give for `Cc1nc(-c2cnn(C)c2CNC(=O)OCc2ccccc2)cnc1O[C@H]1CC[C@H](C(=O)O)C1` (racemic) [Example 18, (±)-Trans-3-((5-(5-((((benzyloxy)carbonyl)amino)methyl)-1-methyl-1H-pyrazol-4-yl)-3-methylpyrazin-2-yl)oxy)cyclopentanecarboxylic Acid] here?
The IC50 was 369 nM.

Which IC50 (human LPA1) does the source give for `Cc1nc(-c2nnn(C)c2COC(=O)N2CC3(CCC3)C2)ccc1O[C@H]1CC[C@H](CC(=O)O)C1` (racemic) [Example 66, (±)-trans-2-[3-({6-[5-({2-azaspiro[3.3]heptane-2-carbonyloxy}methyl)-1-methyl-1H-1,2,3-triazol-4-yl]-2-methylpyridin-3-yl}oxy)cyclopentyl]acetic acid] here?
Its IC50 is 452 nM.

For `Cc1nc(-c2nnn(C)c2COC(=O)N(C)CC(C)C)ccc1O[C@@H]1CC[C@@H](C(=O)O)C1` (racemic) [Example 24, (±)-trans-3-((6-(5-(((isobutyl(methyl)carbamoyl)oxy)methyl)-1-methyl-1H-1,2,3-triazol-4-yl)-2-methylpyridin-3-yl)oxy)cyclopentane carboxylic acid], which IC50 (human LPA1) is on record?
The IC50 was 1160 nM.

Which IC50 (human LPA1) does the source give for `CCCCN(C)C(=O)OCc1c(-c2ccc(O[C@H]3CC[C@H](CC(=O)O)C3)c(C)n2)nnn1C` (single isomer, unassigned) [Example 5, (±)-Trans-2-(3-((6-(5-(((butyl(methyl)carbamoyl)oxy)methyl)-1-methyl-1H-1,2,3-triazol-4-yl)-2-methylpyridin-3-yl)oxy)cyclopentyl)acetic Acid] here?
Its IC50 is 952 nM.

Which IC50 (human LPA1) does the source give for `Cn1nnc(-c2ccc(OC[C@@H]3CC[C@H](C(=O)O)C3)cn2)c1CNc1nccc(-c2ccccn2)n1` (relative stereo) [Example 37, cis-3-(((6-(1-methyl-5-(((4-(pyridin-2-yl)pyrimidin-2-yl)amino)methyl)-1H-1,2,3-triazol-4-yl)pyridin-3-yl)oxy)methyl)cyclopentane-1-carboxylic acid] here?
Its IC50 is 172 nM.

With `Cc1nc(-c2nnn(C)c2COC(=O)N(C)CC2CCC2)ccc1OC[C@@H]1CC[C@H](C(=O)O)C1` (single isomer, unassigned) [Example 31] as the molecule, how does the IC50 (human LPA1) read?
The IC50 was 10.8 nM.

With `Cc1nc(-c2nnn(C)c2COC(=O)N(C)CC2CCC2)ccc1O[C@H]1CC[C@H](CC(=O)O)C1` (single isomer, unassigned) [Example 6, (±)-Trans-2-((1,3)-3-((6-(5-((((cyclobutylmethyl)(methyl)carbamoyl)oxy)methyl)-1-methyl-1H-1,2,3-triazol-4-yl)-2-methylpyridin-3-yl)oxy)cyclopentyl) acetic Acid] as the molecule, how does the IC50 (human LPA1) read?
Its IC50 is 11 nM.

With `Cc1nc(-c2nnn(C)c2CNC(=O)OCC2(C)CC2)ccc1O[C@H]1CC[C@H](CC(=O)O)C1` (racemic) [Example 59, (±)-trans-2-[3-[(2-methyl-6-{1-methyl-5-[({[(1-methylcyclopropyl)methoxy]carbonyl}amino)methyl]-1H-1,2,3-triazol-4-yl}pyridin-3-yl)oxy]cyclo-pentyl]acetic acid] as the molecule, how does the IC50 (human LPA1) read?
The IC50 was 276 nM.

For `Cc1nc(-c2onc(C)c2COC(=O)N(C)C2CCCC2)ccc1O[C@H]1CCC[C@H]1CC(=O)O` (racemic) [Example 85, (±)-Cis-2-(2-((6-(4-(((cyclopentyl(methyl)carbamoyl)oxy)methyl)-3-methylisoxazol-5-yl)-2-methylpyridin-3-yl)oxy)cyclopentyl)acetic Acid], which IC50 (human LPA1) is on record?
The IC50 was 29 nM.

With `Cc1nc(-c2nnn(C)c2COC(=O)N(C)CC2CCC2)ccc1OC[C@@H]1CC[C@H](C(=O)O)C1` (racemic) [Example 30, (±)-Cis-3-(((6-(5-((((cyclobutylmethyl)(methyl)carbamoyl)oxy)methyl)-1-methyl-1H-1,2,3-triazol-4-yl)-2-methylpyridin-3-yl)oxy)methyl)cyclopentane-1-carboxylic Acid] as the molecule, how does the IC50 (human LPA1) read?
Its IC50 is 21 nM.

Which IC50 (human LPA1) does the source give for `Cc1noc(-c2ccc(O[C@@H]3CC[C@@H](C(=O)O)C3)cc2)c1COC(=O)N(C)C1CCCC1` (racemic) [Example 3, (±)-Trans-3-(4-(4-(((cyclopentyl(methyl)carbamoyl)oxy)methyl)-3-methylisoxazol-5-yl)phenoxy)cyclopentane-1-carboxylic Acid] here?
The IC50 was 171 nM.

For `Cc1nc(-c2onc(C)c2COC(=O)N(C)C2CCCC2)ccc1O[C@H]1CC[C@@H](C(=O)O)C1` (racemic) [Example 76, (±)-cis-3-({6-[4-({[cyclopentyl(methyl)carbamoyl]oxy}methyl)-3-methyl-1,2-oxazol-5-yl]-2-methyl-pyridin-3-yl}oxy)cyclopentane-1-carboxylic acid], which IC50 (human LPA1) is on record?
The IC50 was 40 nM.

Source: patent publication US12209072B2, “Cyclopentyl acids as LPA antagonists” (BRISTOL-MYERS SQUIBB COMPANY, priority 2018, dated 2025)
